Source: patent US20210015884A1 (priority 2018, published 2021)

Tests used:
[1] = system: IVA/PC virus; type: cell-based, influenza A virus
[2] = system: IVA/PC virus; assay: microbe, parasite or virus in culture; type: cell-based; conditions: Influenza A virus, MDCK, read-out: IC50 of Zanamivir
[3] = system: m^6A methylation in viral RNA; type: cell-based, influenza A virus

Cc1ccc(Cl)c(Nc2ccccc2C(=O)O)c1Cl [MA, meclofenamic acid]
effect on viral resistance to Zanamivir [1]: potentiates viral resistance to Zanamivir

CC(=O)N[C@H]1[C@H]([C@H](O)[C@H](O)CO)OC(C(=O)O)=C[C@@H]1N=C(N)N [Zanamivir]
IC50 [2]: 2 nM

5′ GGACUGGACUGGACUGGACU 3′ (chemistry not given here) [Target]
m^6A methylation in corresponding viral RNA [3]: concomitant decrease
